This series is described as follows: Assay (III) ThT fibrillation assay for physical stability. Type of series: physicochemical. The essentials:
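Freshly prepared formulations, pH-adjusted, with 1 μM ThT; four or eight replicates incubated at 37 °C under 960 rpm orbital shaking. Fluorescence (ex 444/em 485 nm) read every 20 min; […]. Peptide concentration measured by RP-HPLC before and after the run.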

Starred links: 1 amine or outer side, 2 acyl side, 3 side chain; linkers in the order of their positions; H or OH if unused. Positions of bridges follow the written chain, without caps; N, C: chain ends. Residues, ends and D or L forms follow the SMILES beside them. *: point of attachment. C20 diacid = O=C(O)CCCCCCCCCCCCCCCCCCC(=O)*; C18 diacid = O=C(O)CCCCCCCCCCCCCCCCC(=O)*; γGlu = O=C(O)[C@H](CCC(=O)[*:2])N[*:1]

For the compound `CC[C@H](C)[C@H](NC(=O)[C@@H]1CCCN1C(=O)CNC(=O)[C@H](Cc1ccccc1)NC(=O)[C@H](CC(N)=O)NC(=O)[C@H](CC(N)=O)NC(=O)[C@H](CO)NC(=O)[C@H](CO)NC(=O)[C@H](Cc1c[nH]cn1)NC(=O)[C@H](CCCNC(=N)N)NC(=O)[C@H](CC(C)C)NC(=O)[C@H](Cc1ccccc1)NC(=O)[C@H](CCC(=O)O)NC(=O)[C@H](C)NC(=O)[C@H](CC(C)C)NC(=O)[C@H](CCCNC(=N)N)NC(=O)[C@H](CCC(N)=O)NC(=O)[C@@H](NC(=O)[C@H](C)NC(=O)[C@@H]1CSSC[C@H](NC(=O)[C@H](CCCCN)NC(=O)[C@H](CCC(=O)O)NC(=O)CC[C@H](NC(=O)CCCCCCCCCCCCCCCCC(=O)O)C(=O)O)C(=O)N[C@@H](CC(N)=O)C(=O)N[C@@H]([C@@H](C)O)C(=O)N[C@@H](C)C(=O)N[C@@H]([C@@H](C)O)C(=O)N1)[C@@H](C)O)C(=O)N[C@@H](CC(C)C)C(=O)N1CCC[C@H]1C(=O)N1CCC[C@H]1C(=O)N[C@H](C(=O)N[C@@H](CC(N)=O)C(=O)N[C@H](C(=O)NCC(=O)N[C@@H](CO)C(=O)N[C@@H](Cc1c[nH]cn1)C(=O)N[C@H](C(=O)N[C@@H](Cc1ccc(O)cc1)C(N)=O)[C@@H](C)O)C(C)C)[C@@H](C)O` [Example 62, N-alpha-[(S)-4-Carboxy-4-(17-carboxyheptadecanoylamino)butyryl]-Glu-[Glu14,Arg17,His35]-pramlintide] ({C18 diacid-γGlu}-EKCNTATCATQRLAEFLRHSSNNFGPILPPTNVGSHTY-NH2; disulfide 3-8 (inferred); C-terminus assumed), under “Table 8”, the “ThT pH 4.0 lag time” value is 30 h. In addition, for the setting “ThT fibrillation assay”, the “ThT pH 4.0 lag time” value worked out at 30 h and the “ThT pH 4.0 lag time (h)” value turned out to be 30 h.

For `CC(C)C[C@H](NC(=O)[C@H](CCCNC(=N)N)NC(=O)[C@H](CCC(N)=O)NC(=O)[C@@H](NC(=O)[C@H](C)NC(=O)[C@@H]1CSSC[C@H](NC(=O)[C@H](CCCCN)NC(=O)CC[C@H](NC(=O)CCCCCCCCCCCCCCCCCCC(=O)O)C(=O)O)C(=O)N[C@@H](CC(N)=O)C(=O)N[C@@H]([C@@H](C)O)C(=O)N[C@@H](C)C(=O)N[C@@H]([C@@H](C)O)C(=O)N1)[C@@H](C)O)C(=O)N[C@@H](C)C(=O)N[C@@H](CCC(=O)O)C(=O)N[C@@H](Cc1ccccc1)C(=O)N[C@@H](CC(C)C)C(=O)N[C@@H](CCCNC(=N)N)C(=O)N[C@@H](Cc1c[nH]cn1)C(=O)N[C@@H](CO)C(=O)N[C@@H](CO)C(=O)N[C@@H](CC(N)=O)C(=O)N[C@@H](CC(N)=O)C(=O)N[C@@H](Cc1ccccc1)C(=O)NCC(=O)N[C@@H](C)C(=O)N1CCC[C@H]1C(=O)N[C@@H](CC(C)C)C(=O)N[C@@H](CO)C(=O)N[C@@H](CO)C(=O)N[C@H](C(=O)N[C@@H](CC(N)=O)C(=O)N[C@H](C(=O)NCC(=O)N[C@@H](CO)C(=O)N[C@@H](Cc1c[nH]cn1)C(=O)N[C@H](C(=O)N[C@@H](Cc1ccc(O)cc1)C(N)=O)[C@@H](C)O)C(C)C)[C@@H](C)O` [Example 65, N-alpha-[(S)-4-Carboxy-4-(19-carboxynonadecanoylamino)butyryl]-[Glu14,Arg17,Ala25,Pro26,Ser28,Ser29,His35]-pramlintide] ({C20 diacid-γGlu}-KCNTATCATQRLAEFLRHSSNNFGAPLSSTNVGSHTY-NH2; disulfide 2-7 (inferred); C-terminus assumed), the “ThT pH 4.0 lag time” value (Table 8) is on record as >45 h. Besides, under “ThT fibrillation assay”, the “ThT pH 4.0 lag time” value is recorded as >45 h and the “ThT pH 4.0 lag time (h)” value is >45 h.

Take `CC[C@H](C)[C@H](NC(=O)[C@@H]1CCCN1C(=O)CNC(=O)[C@H](Cc1ccccc1)NC(=O)[C@H](CC(N)=O)NC(=O)[C@H](CC(N)=O)NC(=O)[C@H](CO)NC(=O)[C@H](CO)NC(=O)[C@H](Cc1c[nH]cn1)NC(=O)[C@H](Cc1c[nH]cn1)NC(=O)[C@H](CC(C)C)NC(=O)[C@H](Cc1ccccc1)NC(=O)[C@H](CCC(=O)O)NC(=O)[C@H](C)NC(=O)[C@H](CC(C)C)NC(=O)[C@H](CCCNC(=N)N)NC(=O)[C@H](CCC(N)=O)NC(=O)[C@@H](NC(=O)[C@H](C)NC(=O)[C@@H]1CSSC[C@H](NC(=O)[C@H](CCCCN)NC(=O)[C@H](Cc2c[nH]cn2)NC(=O)CC[C@H](NC(=O)CCCCCCCCCCCCCCCCCCC(=O)O)C(=O)O)C(=O)N[C@@H](CC(N)=O)C(=O)N[C@@H]([C@@H](C)O)C(=O)N[C@@H](C)C(=O)N[C@@H]([C@@H](C)O)C(=O)N1)[C@@H](C)O)C(=O)N[C@@H](CC(C)C)C(=O)N1CCC[C@H]1C(=O)N1CCC[C@H]1C(=O)N[C@H](C(=O)N[C@@H](CC(N)=O)C(=O)N[C@H](C(=O)NCC(=O)N[C@@H](CO)C(=O)N[C@@H](Cc1c[nH]cn1)C(=O)N[C@H](C(=O)N[C@@H](Cc1ccc(O)cc1)C(N)=O)[C@@H](C)O)C(C)C)[C@@H](C)O` [Example 66, N-alpha-[(S)-4-Carboxy-4-(19-carboxynonadecanoylamino)butyryl]-His-[Glu14,His17,His35]-pramlintide] ({C20 diacid-γGlu}-HKCNTATCATQRLAEFLHHSSNNFGPILPPTNVGSHTY-NH2; disulfide 3-8 (inferred); C-terminus assumed): where the note is “ThT fibrillation assay”, the “ThT pH 4.0 lag time” value is on record as >45 h and the “ThT pH 4.0 lag time (h)” value is >45 h.

`CC[C@H](C)[C@H](NC(=O)[C@@H]1CCCN1C(=O)CNC(=O)[C@H](Cc1ccccc1)NC(=O)[C@H](CC(N)=O)NC(=O)[C@H](CC(N)=O)NC(=O)[C@H](CO)NC(=O)[C@H](CO)NC(=O)[C@H](Cc1c[nH]cn1)NC(=O)[C@H](Cc1c[nH]cn1)NC(=O)[C@H](CC(C)C)NC(=O)[C@H](Cc1ccccc1)NC(=O)[C@H](CCC(=O)O)NC(=O)[C@H](C)NC(=O)[C@H](CC(C)C)NC(=O)[C@H](CCCNC(=N)N)NC(=O)[C@H](CCC(N)=O)NC(=O)[C@@H](NC(=O)[C@H](C)NC(=O)[C@@H]1CSSC[C@H](NC(=O)[C@H](Cc2c[nH]cn2)NC(=O)CC[C@H](NC(=O)CCCCCCCCCCCCCCCCCCC(=O)O)C(=O)O)C(=O)N[C@@H](CC(N)=O)C(=O)N[C@@H]([C@@H](C)O)C(=O)N[C@@H](C)C(=O)N[C@@H]([C@@H](C)O)C(=O)N1)[C@@H](C)O)C(=O)N[C@@H](CC(C)C)C(=O)N1CCC[C@H]1C(=O)N1CCC[C@H]1C(=O)N[C@H](C(=O)N[C@@H](CC(N)=O)C(=O)N[C@H](C(=O)NCC(=O)N[C@@H](CO)C(=O)N[C@@H](Cc1c[nH]cn1)C(=O)N[C@H](C(=O)N[C@@H](Cc1ccc(O)cc1)C(N)=O)[C@@H](C)O)C(C)C)[C@@H](C)O` [Example 76, N-alpha-[(S)-4-Carboxy-4-(19-carboxynonadecanoylamino)butyryl]-[His1,Glu14,His17,His35]-pramlintide] ({C20 diacid-γGlu}-HCNTATCATQRLAEFLHHSSNNFGPILPPTNVGSHTY-NH2; disulfide 2-7 (inferred); C-terminus assumed): where the note is “ThT fibrillation assay”, the “ThT pH 4.0 lag time” value is on record as >45 h and the “ThT pH 4.0 lag time (h)” value was >45 h.

For `CC[C@H](C)[C@H](NC(=O)[C@@H]1CCCN1C(=O)CNC(=O)[C@H](Cc1ccccc1)NC(=O)[C@H](CC(N)=O)NC(=O)[C@H](CC(N)=O)NC(=O)[C@H](CO)NC(=O)[C@H](CO)NC(=O)[C@H](Cc1c[nH]cn1)NC(=O)[C@H](CCCNC(=N)N)NC(=O)[C@H](CC(C)C)NC(=O)[C@H](Cc1ccccc1)NC(=O)[C@H](CCC(=O)O)NC(=O)[C@H](C)NC(=O)[C@H](CC(C)C)NC(=O)[C@H](CCCNC(=N)N)NC(=O)[C@H](CCC(N)=O)NC(=O)[C@@H](NC(=O)[C@H](C)NC(=O)[C@@H]1CSSC[C@H](NC(=O)CNC(=O)CC[C@H](NC(=O)CCCCCCCCCCCCCCCCCCC(=O)O)C(=O)O)C(=O)N[C@@H](CC(N)=O)C(=O)N[C@@H]([C@@H](C)O)C(=O)N[C@@H](C)C(=O)N[C@@H]([C@@H](C)O)C(=O)N1)[C@@H](C)O)C(=O)N[C@@H](CC(C)C)C(=O)N1CCC[C@H]1C(=O)N1CCC[C@H]1C(=O)N[C@H](C(=O)N[C@@H](CC(N)=O)C(=O)N[C@H](C(=O)NCC(=O)N[C@@H](CO)C(=O)N[C@@H](CC(N)=O)C(=O)N[C@H](C(=O)N1CCC[C@H]1C(N)=O)[C@@H](C)O)C(C)C)[C@@H](C)O` [Example 88, N-alpha-[(S)-4-Carboxy-4-(19-carboxynonadecanoylamino)butyryl]-[Gly1,Glu14,Arg17,Pro37]-pramlintide] ({C20 diacid-γGlu}-GCNTATCATQRLAEFLRHSSNNFGPILPPTNVGSNTP-NH2; disulfide 2-7 (inferred); C-terminus assumed), the “ThT pH 4.0 lag time” value is, setting by setting: (Table 8) >45 h; (Table 9) >45 h; (ThT fibrillation assay) >45 h. The “ThT pH 4.0 lag time (h)” value (ThT fibrillation assay) is reported as >45 h.

In the case of `CC[C@H](C)[C@H](NC(=O)[C@@H]1CCCN1C(=O)CNC(=O)[C@H](Cc1ccccc1)NC(=O)[C@H](CC(N)=O)NC(=O)[C@H](CC(N)=O)NC(=O)[C@H](CO)NC(=O)[C@H](CO)NC(=O)[C@H](Cc1c[nH]cn1)NC(=O)[C@H](CCCNC(=N)N)NC(=O)[C@H](CC(C)C)NC(=O)[C@H](Cc1ccccc1)NC(=O)[C@H](CCC(=O)O)NC(=O)[C@H](C)NC(=O)[C@H](CC(C)C)NC(=O)[C@H](CCCNC(=N)N)NC(=O)[C@H](CCC(N)=O)NC(=O)[C@@H](NC(=O)[C@H](C)NC(=O)[C@@H]1CSSC[C@H](NC(=O)[C@H](Cc2c[nH]cn2)NC(=O)CC[C@H](NC(=O)CCCCCCCCCCCCCCCCCCC(=O)O)C(=O)O)C(=O)N[C@@H](CC(N)=O)C(=O)N[C@@H]([C@@H](C)O)C(=O)N[C@@H](C)C(=O)N[C@@H]([C@@H](C)O)C(=O)N1)[C@@H](C)O)C(=O)N[C@@H](CC(C)C)C(=O)N1CCC[C@H]1C(=O)N1CCC[C@H]1C(=O)N[C@H](C(=O)N[C@@H](CC(N)=O)C(=O)N[C@H](C(=O)NCC(=O)N[C@@H](CO)C(=O)N[C@@H](CC(N)=O)C(=O)N[C@H](C(=O)N1CCC[C@H]1C(N)=O)[C@@H](C)O)C(C)C)[C@@H](C)O` [Example 90, N-alpha-[(S)-4-Carboxy-4-(19-carboxynonadecanoylamino)butyryl]-[His1,Glu14,Arg17,Pro37]-pramlintide] ({C20 diacid-γGlu}-HCNTATCATQRLAEFLRHSSNNFGPILPPTNVGSNTP-NH2; disulfide 2-7 (inferred); C-terminus assumed), the “ThT pH 4.0 lag time” value by setting is: (Table 8) >45 h; (Table 9) >45 h; (ThT fibrillation assay) >45 h. Further, the “ThT pH 4.0 lag time (h)” value (ThT fibrillation assay) is reported as >45 h.
